From patent US4632925A, “N-substituted diphenylpiperidines and antiobesity use thereof” (Hoffmann-La Roche Inc., priority 1985, dated 1986)
Where a name gives a salt, the structure may show the parent alone.

Key:
[1] = Glucose clearance: acute in vivo model; parameters: species or system Sprague-Dawley rats; settings: Rattus norvegicus, po, 0.5 h; 100 mg/kg intragastric, 30 min before i.p. glucose 1 g/kg; circulating glucose at 30 min; >100% indicates activity
Protocol: GLUCOSE CLEARANCE: ACUTE IN VIVO MODEL
The rationale for this test is that compounds which suppress insulin secretion should increase circulating glucose levels above those observed in controls following the administration of a high glucose load. Sprague-Dawley rats which range in weight from 150 to 180 grams after an overnight fast of 16 or 18 hours are given the test compound (100 mg/kg body weight) by intragastric administration 30 minutes before the intraperitoneal administration of glucose (1 g/kg body weight). Circulating glucose levels are determined immediately before glucose administration and 30, 60 and 90 minutes after glucose administration. Active compounds increase circulating glucose levels compared to controls. Since glucose levels peak at 30 minutes following glucose administration, the difference in circulating glucose levels between controls and treated rats at 30 minutes is used as an index of activity. The data are expressed as percent of control.

[2] = system: isolated perfused rat pancreas (insulin secretion); test: Insulin-secretory activity in the isolated perfused rat pancreas; parameters: species or system rat (female Charles River); settings: 16.7 mM glucose, index > 1 indicates suppression of insulin secretion
Protocol: DETERMINATION OF INSULIN-SECRETORY ACTIVITY IN THE ISOLATED PERFUSED RAT PANCREAS
Pancreases were obtained from young adult female Charles River rats weighing from 200-300 g. The animals were anesthesized with sodium pentobarbitol (45 mg/kg), injected intraperitoneally, and the pancreas with its intact vasculature was removed and connected to an extracorporeal perfusion apparatus.
The basic perfusion solution contained: 133 mM NaCl, 4.4 mM KCl, 2.5 mM MgSO4, 2.4 mM Ca gluconate, 1.5 mM KH2 PO4, 29.4 mM HaHCO3, 4% dextran and 0.2% bovine serum albumin and glucose as discussed below. The perfusion flow rate was kept constant at 4 ml/min. After a 15-20 minute equilibration period, the experimental protocol was begun. The pancreatic effluent was collected in either one or four-minute fractions.
The perfusion was run in the following sequence for each test compounds:
30 min 16.7 mM glucose--internal control
30 min 16.7 mM glucose and test compound
10 min 16.7 mM glucose--to check pancreas viability
The perfusion for the nontreated pancreas preparation was run as above, except that the test compound was omitted and replaced with perfusion solution.
Test compounds were dissolved in 90% ethanol or dimethylsulfoxide to a concentration of 25 mM and then diluted in the perfusion buffer to the desired concentration. The perfusion effluent was collected in one or four minute fractions--the samples were checked immediately, aliquoted for submission to radioimmunoassay and stored at -20° C. until the time of assay. The radioimmunoassay of insulin was carried out by a back-titration method using a pure rat insulin standard.
To assess the inhibitory activity of the test compounds, an inhibition index was calculated. The inhibition index is derived by comparing the insulin secretion response from treated versus nontreated pancreas preparations. For each preparation, a ratio of insulin secretion was calculated from the area under the insulin secretion curve of the first pulse of 16.7 mM glucose divided by the area under the curve of the second pulse of 16.7 mM glucose containing compound.

[3] = Antiobesity effects in obese Zucker rats; assay type: in vivo, genetically obese male Zucker rats; settings: 14 days; for Relative Body Weight Gain Index: gain / days / dose (g/kg)
Protocol: ANTIOBESITY EFFECTS IN OBESE ZUCKER RATS
Genetically Obese Male Zucker rats were kept in temperature (22° C.) and light (12 hours light-dark cycle) regulated rooms. One week prior to the start of the experiment, the rats were transferred to individual wirebottomed cages and trained to eat a powdered chow diet (Ralston Purina Co., St. Louis, Mo.) ad libitum.
At the beginning of the experiment, the control group contributed to eat the chow diet and the experimental animals were given a chow diet containing drug. The amount of drug administered was calculated from the food intake per kg body weight for each experimental group. The age of the rats at the start of the drug treatment was two to three months. The period of treatment was 28 to 64 days. Food intake and body weights were recorded periodically (once each day to twice a week) throughout the duration of the study. Plasma samples for insulin and glucose determinations were taken from clipped tails. Carcass composition was determined at the end of the treatment period and, or comparative purposes, prior to the start of treatment.

[4] = Antiobesity effects in obese Zucker rats; assay type: in vivo, genetically obese male Zucker rats; settings: 46 mg/kg, 14 days; gain / days / dose (g/kg)

In the case of O=C(CCCc1cccnc1)N1CCC(C(c2ccccc2)c2ccccc2)CC1 [Example 10, 4-diphenylmethyl-1-[1-oxo-4-(3-pyridinyl)butyl]piperidine, 0.1 molar ethylacetate solvate], the response vs control in vivo at 100 mg/kg [1] is reported as 105% and the “Perfused Pancreas Inhibition Index” value ([2]; 100 μM) is reported as 6.0.

For O=C(CCCc1cccnc1)N1CCC(C=C(c2ccccc2)c2ccccc2)CC1 [Example 11, 4-(2,2-diphenylethenyl)-1-[1-oxo-4-(3-pyridinyl)butyl]piperidine], the response vs control in vivo at 100 mg/kg [1] was 99% and the “Perfused Pancreas Inhibition Index” value ([2]; 50 μM) was 7.6.

With O=C(CCCc1cccnc1)N1CCC(CC(c2ccccc2)c2ccccc2)CC1 [Example 14, 4-(2,2-diphenylethyl)-1-[1-oxo-4-(3-pyridinyl)butyl]piperidine] the response vs control in vivo at 100 mg/kg [1] was 109% and the “Perfused Pancreas Inhibition Index” value ([2]; 100 μM) was 14.1.

In the case of c1ccc(C(c2ccccc2)C2CCN(CCCCc3cccnc3)CC2)cc1 [Example 16, 3-[4-[4-(Diphenylmethyl)-1-piperidinyl]butyl]pyridine (1:1)-(Z)-2-butenedioate salt], the response vs control in vivo at 100 mg/kg [1] is reported as 120% and the “Perfused Pancreas Inhibition Index” value ([2]; 100 μM) is reported as 5.3.

For C(=C(c1ccccc1)c1ccccc1)C1CCN(CCCCc2cccnc2)CC1 [Example 17, 3-[4-[4-(2,2-Diphenylethenyl)-1-piperidinyl]butyl]pyridine], the response vs control in vivo at 100 mg/kg [1] was 101% and the “Perfused Pancreas Inhibition Index” value ([2]; 100 μM) was 1.7.

With Fc1ccc(C(=CC2CCN(CCCCc3cccnc3)CC2)c2ccc(F)cc2)cc1 [Example 18, 3-[4-[4-[2,2-bis(4-fluorophenyl)ethenyl]-1-piperidinyl]butyl]pyridine (1:1)-(E)-2-butenedioate salt] the response vs control in vivo at 100 mg/kg [1] was 113% and the “Perfused Pancreas Inhibition Index” value ([2]; 100 μM) was 0.6.

With C(=C(c1ccccc1)c1ccccc1)C1CCN(CCCCCc2cccnc2)CC1 [Example 19, 3-[5-[4-(2,2-Diphenylethenyl)-1-piperidinyl]pentyl]pyridine (1:1)-(E)-2-butenedioate salt] the response vs control in vivo at 100 mg/kg [1] was 97% and the “Perfused Pancreas Inhibition Index” value ([2]; 100 μM) was 24.1.

With c1ccc(C(CC2CCN(CCCCc3cccnc3)CC2)c2ccccc2)cc1 [Example 20, 3-[4-[4-(2,2-Diphenylethyl)-1-piperidinyl]butyl]pyridine] the response vs control in vivo at 100 mg/kg [1] was 106% and the “Perfused Pancreas Inhibition Index” value ([2]; 100 μM) was 19.1.

In the case of Fc1ccc(C(CC2CCN(CCCCc3cccnc3)CC2)c2ccc(F)cc2)cc1 [Example 21, 3-[4-[4-[2,2-Bis(4-fluorophenyl)ethyl]-1-piperidinyl]butyl]pyridine (1:1)-(E)-2-butenedioate salt], the response vs control in vivo at 100 mg/kg [1] is reported as 136% and the “Perfused Pancreas Inhibition Index” value ([2]; 100 μM) is reported as 16.3.

In the case of C(=C(c1ccccc1)c1ccccc1)C1CCN(CCCc2cccnc2)CC1 [Example 22, 3-[3-[4-(2,2-Diphenylethenyl)-1-piperidinyl]propyl]pyridine (1:1)-(E)-2-butenedioate salt], the response vs control in vivo at 100 mg/kg [1] is reported as 101% and the “Perfused Pancreas Inhibition Index” value ([2]; 100 μM) is reported as 10.1.

For C(=C(c1ccccc1)c1ccccc1)C1CCN(CCCCCCc2cccnc2)CC1 [Example 23, 3-[6-[4-(2,2-diphenylethenyl)-1-piperidinyl]hexyl]pyridine (1:1)-(E)-2-butenedioate salt], the response vs control in vivo at 100 mg/kg [1] was 144% and the “Perfused Pancreas Inhibition Index” value ([2]; 100 μM) was 2.6.

In the case of C(=C(c1ccccc1)c1ccccc1)C1CCN(CCCCCCCc2cccnc2)CC1 [Example 24, 3-[7-[4-(2,2-Diphenylethenyl)-1-piperidinyl]heptyl]pyridine (1:1)-(E)-2-butenedioate salt hemihydrate], the response vs control in vivo at 100 mg/kg [1] is reported as 118% and the “Perfused Pancreas Inhibition Index” value ([2]; 50 μM) is reported as 35.

In the case of Fc1ccc(C(CC2CCN(CCCCCCc3cccnc3)CC2)c2ccc(F)cc2)cc1 [Example 26, 3-[6-[4-[2,2-Bis(4-fluorophenyl)ethyl]-1-piperidinyl]hexyl]pyridine (1:1)-(E)-2-butenedioate salt], the response vs control in vivo at 100 mg/kg [1] is reported as 125% and the “Perfused Pancreas Inhibition Index” value ([2]; 50 μM) is reported as 2.0.

With c1ccc(C(CC2CCN(CCCCCCCCc3cccnc3)CC2)c2ccccc2)cc1 [Example 27, 3-[8-[4-(2,2-Diphenylethyl)-1-piperidinyl]octyl]pyridine] the “Relative Body Weight Gain Index” value ([3]; 58 mg/kg) was 94, the “Body Weight Gain (treated minus control)” value ([3]; 58 mg/kg, marked *) was -76 g and the “Food Intake” value ([3]; 58 mg/kg, marked *) was 70 % of control.

In the case of C(=C(c1ccccc1)c1ccccc1)C1CCN(CCCCc2cncnc2)CC1 [Example 28, 5-[4-[4-(2,2-diphenylethenyl)-1-piperidinyl]butyl]pyrimidine (1:1)-(E)-2-butenedioate salt], the response vs control in vivo at 100 mg/kg [1] is reported as 147% and the “Perfused Pancreas Inhibition Index” value ([2]; 100 μM) is reported as 3.0.

For C(=C(c1ccccc1)c1ccccc1)C1CCN(CCCCCCc2cncnc2)CC1 [Example 29, 5-[6-[4-(2,2-Diphenylethenyl)-1-piperidinyl]hexyl]pyrimidine], the response vs control in vivo at 100 mg/kg [1] was 104% and the “Perfused Pancreas Inhibition Index” value ([2]; 100 μM) was 10.4.

With C(=C(c1ccccc1)c1ccccc1)C1CCN(CCCCCCCCCc2cccnc2)CC1 [Example 31, 3-[9-[4-(2,2-Diphenylethenyl)-1-piperidinyl]nonyl]pyridine] the response vs control in vivo at 100 mg/kg [1] was 107%, the “Perfused Pancreas Inhibition Index” value ([2]; 50 μM) was 2.7 and the “Relative Body Weight Gain Index” value ([3]; 41 mg/kg) was 61. The “Body Weight Gain (treated minus control)” value ([3]; 41 mg/kg, marked *) was -35 g and the “Food Intake” value ([3]; 41 mg/kg, marked *) was 82 % of control.

In the case of C(=C(c1ccccc1)c1ccccc1)C1CCN(CCCCCCCCCCc2cccnc2)CC1 [Example 32, 3-[10-[4-(2,2-Diphenylethenyl)-1-piperidinyl]decyl]pyridine], the response vs control in vivo at 100 mg/kg [1] is reported as 100%, the “Relative Body Weight Gain Index” value [4] is reported as 71 and the “Food Intake” value ([3]; 46 mg/kg) is reported as 91 % of control. The “Body Weight Gain (treated minus control)” value ([3]; 46 mg/kg, marked *) was -46 g.

With O=C(CCCCCn1ccnc1)N1CCC(C=C(c2ccccc2)c2ccccc2)CC1 [Example 33, 4-(2,2-Diphenylethenyl)-1-[1-oxo-6-(1H-imidazo-1-yl)hexyl]piperidine] the response vs control in vivo at 100 mg/kg [1] was 120% and the “Perfused Pancreas Inhibition Index” value ([2]; 50 μM) was 2.5.

With C(=C(c1ccccc1)c1ccccc1)C1CCN(CCCCCCn2ccnc2)CC1 [Example 34, 1-[6-[4-(2,2-Diphenylethenyl)-1-piperidinyl]hexyl]-1H-imidazole] the response vs control in vivo at 100 mg/kg [1] was 101% and the “Perfused Pancreas Inhibition Index” value ([2]; 50 μM) was 1.1.
